How the values were obtained:
[1] = bacteroides stercoris, 12 h, 2 µM
Description: The drug is tested on Bacteroides stercoris strain: ATCC43183 for biotransformation. The drug concentrations were measured before and after a 12-h incubation by liquid-chromatography-coupled mass spectrometry (LC–MS)

[2] = segatella copri, 12 h, 2 µM
Description: The drug is tested on Prevotella copri strain: DSM18205 for biotransformation. The drug concentrations were measured before and after a 12-h incubation by liquid-chromatography-coupled mass spectrometry (LC–MS)

[3] = The drug is tested on Anaerococcus hydrogenalis strain: DSM7454 for biotransformation. The drug concentrations were measured before and after a 12-h incubation by liquid-chromatography-coupled mass spectrometry (LC–MS); conditions: 2 µM
[4] = The drug is tested on Bacteroides caccae strain: ATCC43185 for biotransformation. The drug concentrations were measured before and after a 12-h incubation by liquid-chromatography-coupled mass spectrometry (LC–MS); conditions: 2 µM
[5] = bacteroides fragilis, 12 h, 2 µM
Description: The drug is tested on Bacteroides fragilis strain: NCTC 9343 for biotransformation. The drug concentrations were measured before and after a 12-h incubation by liquid-chromatography-coupled mass spectrometry (LC–MS)

[6] = The drug is tested on Bacteroides sp. WH2 strain: WH2 for biotransformation. The drug concentrations were measured before and after a 12-h incubation by liquid-chromatography-coupled mass spectrometry (LC–MS); conditions: bacteroides sp. wh2, 12 h, 2 µM
[7] = The drug is tested on Clostridium scindens strain: ATCC35704 for biotransformation. The drug concentrations were measured before and after a 12-h incubation by liquid-chromatography-coupled mass spectrometry (LC–MS); conditions: 2 µM
[8] = The drug is tested on Ruminococcus torques strain: ATCC27756 for biotransformation. The drug concentrations were measured before and after a 12-h incubation by liquid-chromatography-coupled mass spectrometry (LC–MS); type: ADME; parameters: dose 2 uM, timepoint 0 vs 12 hours; conditions: 2 µM
[9] = The drug is tested on Eubacterium ventriosum strain: ATCC27560 for biotransformation. The drug concentrations were measured before and after a 12-h incubation by liquid-chromatography-coupled mass spectrometry (LC–MS); type: ADME; parameters: dose 2 uM, timepoint 0 vs 12 hours; conditions: 2 µM
[10] = The drug is tested on Blautia luti strain: DSM14534 for biotransformation. The drug concentrations were measured before and after a 12-h incubation by liquid-chromatography-coupled mass spectrometry (LC–MS); type: ADME; parameters: dose 2 uM, timepoint 0 vs 12 hours; conditions: 2 µM
[11] = bacteroides fragilis, 12 h, 2 µM; remark: listed apart in the source
Description: The drug is tested on Bacteroides fragilis strain: 3397 (T10) for biotransformation. The drug concentrations were measured before and after a 12-h incubation by liquid-chromatography-coupled mass spectrometry (LC–MS)

[12] = The drug is tested on Bifidobacterium ruminantium strain: fecal isolate for biotransformation. The drug concentrations were measured before and after a 12-h incubation by liquid-chromatography-coupled mass spectrometry (LC–MS); conditions: 2 µM
[13] = The drug is tested on Bacteroides dorei strain: DSM17855 for biotransformation. The drug concentrations were measured before and after a 12-h incubation by liquid-chromatography-coupled mass spectrometry (LC–MS); conditions: phocaeicola dorei, 2 µM
[14] = The drug is tested on Bacteroides fragilis strain: HMW610 for biotransformation. The drug concentrations were measured before and after a 12-h incubation by liquid-chromatography-coupled mass spectrometry (LC–MS); conditions: 2 µM
[15] = The drug is tested on Enterococcus faecalis strain: V583 for biotransformation. The drug concentrations were measured before and after a 12-h incubation by liquid-chromatography-coupled mass spectrometry (LC–MS); conditions: 2 µM
[16] = parabacteroides distasonis, 12 h, 2 µM
Description: The drug is tested on Parabacteroides distasonis strain: ATCC8503 for biotransformation. The drug concentrations were measured before and after a 12-h incubation by liquid-chromatography-coupled mass spectrometry (LC–MS)

[17] = The drug is tested on Bacteroides fragilis strain: ATCC43859 for biotransformation. The drug concentrations were measured before and after a 12-h incubation by liquid-chromatography-coupled mass spectrometry (LC–MS); conditions: 2 µM
[18] = The drug is tested on Bifidobacterium longum subsp. Infantis strain: CCUG52486 for biotransformation. The drug concentrations were measured before and after a 12-h incubation by liquid-chromatography-coupled mass spectrometry (LC–MS); conditions: 2 µM
[19] = bacteroides thetaiotaomicron, 12 h, 2 µM
Description: The drug is tested on Bacteroides thetaiotaomicron strain: 3731 for biotransformation. The drug concentrations were measured before and after a 12-h incubation by liquid-chromatography-coupled mass spectrometry (LC–MS)

| SMILES | Bacterial Biotransformation [1] | Bacterial Biotransformation [2] | Bacterial Biotransformation [3] | Bacterial Biotransformation [4] | Bacterial Biotransformation [5] | Bacterial Biotransformation [6] | Bacterial Biotransformation [7] | Bacterial Biotransformation [8] | Bacterial Biotransformation [9] | Bacterial Biotransformation [10] | Bacterial Biotransformation [11] | Bacterial Biotransformation [12] | Bacterial Biotransformation [13] | Bacterial Biotransformation [14] | Bacterial Biotransformation [15] | Bacterial Biotransformation [16] | Bacterial Biotransformation [17] | Bacterial Biotransformation [18] | Bacterial Biotransformation [19] |
| --- | --- | --- | --- | --- | --- | --- | --- | --- | --- | --- | --- | --- | --- | --- | --- | --- | --- | --- | --- |
| C=CCc1ccccc1OCC(O)CNC(C)C (configuration not stated) [ALPRENOLOL] | Compound NOT metabolized | Compound NOT metabolized | Compound NOT metabolized | Compound NOT metabolized | Compound NOT metabolized | Compound NOT metabolized | Compound NOT metabolized | Compound NOT metabolized | Compound NOT metabolized | Compound NOT metabolized | Compound NOT metabolized | Compound metabolized | Compound NOT metabolized |  |  |  |  |  |  |
| COc1cc2c(c(OC)c1OC)-c1ccc(OC)c(=O)cc1[C@@H](NC(C)=O)CC2 [COLCHICINE] | Compound metabolized | Compound metabolized | Compound NOT metabolized |  | Compound metabolized |  | Compound NOT metabolized | Compound NOT metabolized | Compound NOT metabolized | Compound NOT metabolized | Compound metabolized | Compound NOT metabolized | Compound metabolized | Compound metabolized | Compound NOT metabolized | Compound metabolized | Compound metabolized | Compound NOT metabolized | Compound metabolized |
| CC(=O)O[C@]1(C(C)=O)CC[C@H]2[C@@H]3C=C(Cl)C4=CC(=O)[C@@H]5C[C@@H]5[C@]4(C)[C@H]3CC[C@@]21C [CYPROTERONE ACETATE] | Compound metabolized | Compound NOT metabolized | Compound NOT metabolized | Compound NOT metabolized | Compound metabolized | Compound NOT metabolized | Compound metabolized | Compound NOT metabolized | Compound NOT metabolized | Compound NOT metabolized |  | Compound NOT metabolized | Compound metabolized | Compound metabolized | Compound NOT metabolized | Compound metabolized | Compound metabolized | Compound NOT metabolized | Compound metabolized |
| CN1CCC[C@@H]1CCO[C@](C)(c1ccccc1)c1ccc(Cl)cc1.O=C(O)/C=C/C(=O)O [CLEMASTINE FUMARATE] | Compound metabolized | Compound metabolized | Compound NOT metabolized |  | Compound metabolized |  | Compound NOT metabolized | Compound NOT metabolized | Compound NOT metabolized | Compound NOT metabolized | Compound metabolized |  | Compound metabolized | Compound metabolized |  | Compound metabolized | Compound NOT metabolized | Compound NOT metabolized |  |
| CC(C)NCC(O)COc1ccc(COCCOC(C)C)cc1.CC(C)NCC(O)COc1ccc(COCCOC(C)C)cc1.O=C(O)/C=C/C(=O)O (configuration not stated) [BISOPROLOL FUMARATE] | Compound NOT metabolized | Compound NOT metabolized | Compound NOT metabolized | Compound NOT metabolized | Compound NOT metabolized | Compound NOT metabolized | Compound NOT metabolized | Compound NOT metabolized | Compound NOT metabolized | Compound NOT metabolized | Compound NOT metabolized | Compound NOT metabolized | Compound NOT metabolized | Compound NOT metabolized | Compound NOT metabolized |  | Compound NOT metabolized | Compound NOT metabolized | Compound NOT metabolized |
| CC(=O)SCC(Cc1ccccc1)C(=O)NCC(=O)OCc1ccccc1 (configuration not stated) [RACECADOTRIL] | Compound metabolized | Compound metabolized |  |  | Compound metabolized | Compound metabolized |  |  | Compound metabolized |  |  |  | Compound metabolized | Compound metabolized |  | Compound metabolized |  | Compound metabolized | Compound metabolized |
| CCN(CC)CCNC(=O)c1ccc(NC(C)=O)cc1 [ACECAINIDE] |  | Compound NOT metabolized | Compound NOT metabolized | Compound NOT metabolized |  | Compound NOT metabolized | Compound NOT metabolized | Compound NOT metabolized | Compound NOT metabolized | Compound NOT metabolized | Compound NOT metabolized |  |  | Compound NOT metabolized | Compound NOT metabolized | Compound NOT metabolized | Compound metabolized | Compound NOT metabolized |  |
| C[N+]12CCC(CC1)C(OC(=O)C(O)(c1ccccc1)c1ccccc1)C2.[Br-] (configuration not stated) [CLIDINIUM BROMIDE] | Compound NOT metabolized | Compound NOT metabolized | Compound NOT metabolized | Compound NOT metabolized | Compound NOT metabolized | Compound NOT metabolized | Compound NOT metabolized |  | Compound NOT metabolized | Compound NOT metabolized | Compound NOT metabolized |  | Compound NOT metabolized | Compound NOT metabolized | Compound NOT metabolized | Compound NOT metabolized |  | Compound NOT metabolized | Compound NOT metabolized |
| CC(C)NCC(O)COc1ccc(CCOCC2CC2)cc1 (configuration not stated) [BETAXOLOL] | Compound NOT metabolized |  | Compound NOT metabolized | Compound NOT metabolized | Compound NOT metabolized | Compound NOT metabolized | Compound NOT metabolized | Compound NOT metabolized | Compound NOT metabolized | Compound NOT metabolized | Compound NOT metabolized |  |  | Compound NOT metabolized | Compound NOT metabolized |  | Compound NOT metabolized | Compound NOT metabolized | Compound NOT metabolized |
| Br.CN(C)CCCC1(c2ccc(F)cc2)OCc2cc(C#N)ccc21 (configuration not stated) [CITALOPRAM HYDROBROMIDE] | Compound NOT metabolized | Compound NOT metabolized | Compound NOT metabolized | Compound NOT metabolized | Compound NOT metabolized | Compound NOT metabolized | Compound NOT metabolized | Compound NOT metabolized | Compound NOT metabolized | Compound NOT metabolized | Compound NOT metabolized | Compound NOT metabolized |  | Compound NOT metabolized | Compound NOT metabolized |  | Compound NOT metabolized | Compound NOT metabolized | Compound NOT metabolized |

— ChEMBL document CHEMBL5303573, “Mapping human microbiome drug metabolism by gut bacteria and their genes” (Nature, 2019)
